Measured values published in patent US10407409B2, “6-(5-hydroxy-1H-pyrazol-1-yl)nicotinamide inhibitors of PHD” (Takeda Pharmaceutical Company Limited, priority 2013, dated 2019).

Tests used:
[1] = tested on: HIF1a protein in H9c2 rat cardiomyocytes; assay: Cell-based HIF-alpha stabilization assay (inhibition of PHD in cells); details: 24 hrs compound incubation, HIF1a protein by ELISA; for EC50: Rattus norvegicus, H9c2, 24 h, read-out: Inhibition of PHD in cells (pEC50) (converted)
Procedure, shortened: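 HIF1a stabilization was measured by ELISA on lysates of H9c2 rat cardiomyocytes after 24 h exposure to 11 serial compound concentrations, expressed relative to the desferrioxamine maximum. Curve fits gave EC50. EC50pos denotes the concentration producing half the desferrioxamine maximal response.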

[2] = molecular target: PHD2 enzyme (residues 181-417) (Homo sapiens (Human), UniProt Q9GZT9); assay: Inhibition of PHD enzyme (LC/MS peptide hydroxylation assay); type: biochemical; details: PHD2 (residues 181-417) 5 nM, 60 min pre-incubation, -log(IC50), IC50 molar
PHD2 enzyme (residues 181-417), sequence (Q9GZT9 181-417): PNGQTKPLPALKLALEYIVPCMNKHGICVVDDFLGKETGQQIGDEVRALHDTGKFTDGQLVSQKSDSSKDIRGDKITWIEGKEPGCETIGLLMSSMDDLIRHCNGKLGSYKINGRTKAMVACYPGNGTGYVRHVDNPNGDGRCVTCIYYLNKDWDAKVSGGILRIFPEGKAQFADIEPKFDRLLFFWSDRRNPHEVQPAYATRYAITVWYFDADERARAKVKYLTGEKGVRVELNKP
Procedure, shortened: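 Hydroxylated peptide quantified by LC/MS after 60 min turnover of 1 uM biotinylated peptide with 2 uM 2-oxoglutarate and 1 mM ascorbate, stopped by excess tight-binding inhibitor. Beforehand, 5 nM enzyme and compound were preincubated 60 min at RT, pH 7.3 HEPES/KCl/TCEP/FeCl2/BSA buffer. Values as pIC50 (−log molar IC50).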

Row | PHD Inhibition (pIC50) [2] | IC50 ([2]; read-out: PHD Inhibition (pIC50) (converted)) | SMILES | EC50 [1] | Inhibition of PHD in cells (pEC50) [1]
1 | 8.35 |  | Cc1c(-c2cnn(-c3ccc(C(=O)N4CC[C@H](N(C)C)C4)cn3)c2O)ccc(C#N)c1F [Example 318, (S)-4-(1-(5-(3-(dimethylamino)pyrrolidine-1-carbonyl)pyridin-2-yl)-5-hydroxy-1H-pyrazol-4-yl)-2-fluoro-3-methylbenzonitrile] | 708 nM | 
2 | 8.07 |  | COCCCNC(=O)c1ccc(-n2ncc(-c3ccc(C#N)cc3COC)c2O)nc1 [Example 410, 6-(4-(4-cyano-2-(methoxymethyl)phenyl)-5-hydroxy-1H-pyrazol-1-yl)-N-(3-methoxypropyl)nicotinamide] | 513 nM | 
3 | 7.23 |  | CCNC(=O)c1ccc(-n2ncc(-c3ccc(C#N)cc3)c2O)nc1 [Example 266, 6-(4-(4-cyanophenyl)-5-hydroxy-1H-pyrazol-1-yl)-N-ethylnicotinamide] | 1910 nM | 
4 | 8.18 |  | Cc1cc(C#N)ccc1-c1cnn(-c2ccc(C(=O)N3CCN(C)C[C@H]3C)cn2)c1O [Example 385, (R)-4-(1-(5-(2,4-dimethylpiperazine-1-carbonyl)pyridin-2-yl)-5-hydroxy-1H-pyrazol-4-yl)-3-methylbenzonitrile] | 955 nM | 
5 | 7.22 |  | CC(NC(=O)c1ccc(-n2ncc(-c3ccc(C#N)cc3)c2O)nc1)C1CCCO1 (stereo not shown) [Example 113, 6-(4-(4-cyanophenyl)-5-hydroxy-1H-pyrazol-1-yl)-N-(1-(tetrahydrofuran-2-yl)ethyl)nicotinamide] | 1380 nM | 
6 | 7.01 |  | COc1cc(C#N)ccc1-c1cnn(-c2ccc(C(=O)NC3CC3)cn2)c1O [Example 232, 6-(4-(4-cyano-2-methoxyphenyl)-5-hydroxy-1H-pyrazol-1-yl)-N-cyclopropylnicotinamide] | 339 nM | 
7 | 7.18 |  | Cc1cc(C#N)ccc1-c1cnn(-c2ccc(C(=O)NC3CC3)cn2)c1O [Example 127, 6-(4-(4-cyano-2-methylphenyl)-5-hydroxy-1H-pyrazol-1-yl)-N-cyclopropylnicotinamide] | 93.3 nM | 
8 | 7.87 |  | COCCN(C(=O)c1ccc(-n2ncc(-c3ccc(C#N)cc3C)c2O)nc1)C1CCN(C)CC1 [Example 422, 6-(4-(4-cyano-2-methylphenyl)-5-hydroxy-1H-pyrazol-1-yl)-N-(2-methoxyethyl)-N-(1-methylpiperidin-4-yl)nicotinamide] | 501 nM | 
9 | 8.31 |  | COC1CCN(C(=O)c2ccc(-n3ncc(-c4ccc(C#N)c(F)c4C)c3O)nc2)CC1 [Example 316, 2-fluoro-4-(5-hydroxy-1-(5-(4-methoxypiperidine-1-carbonyl)pyridin-2-yl)-1H-pyrazol-4-yl)-3-methylbenzonitrile] | 1290 nM | 
10 | 8.47 |  | CCN1CCN(C(=O)c2ccc(-n3ncc(-c4ccc(C#N)c(F)c4C)c3O)nc2)[C@@H](C)C1 [Example 341, (S)-4-(1-(5-(4-ethyl-2-methylpiperazine-1-carbonyl)pyridin-2-yl)-5-hydroxy-1H-pyrazol-4-yl)-2-fluoro-3-methylbenzonitrile] | 589 nM | 
11 | 7.61 |  | Cc1cc(C#N)ccc1-c1cnn(-c2ccc(C(=O)N3CCC[C@H](N(C)C)C3)cn2)c1O [Example 376, (S)-4-(1-(5-(3-(dimethylamino)piperidine-1-carbonyl)pyridin-2-yl)-5-hydroxy-1H-pyrazol-4-yl)-3-methylbenzonitrile] | 891 nM | 
12 | 7.29 |  | COCC1(NC(=O)c2ccc(-n3ncc(-c4ccc(C#N)cc4)c3O)nc2)CC1 [Example 201, 6-(4-(4-cyanophenyl)-5-hydroxy-1H-pyrazol-1-yl)-N-(1-(methoxymethyl)cyclopropyl)nicotinamide] | 776 nM | 
13 | 7.25 |  | Cc1cc(C#N)ccc1-c1cnn(-c2ccc(C(=O)NCC3CCOCC3)cn2)c1O [Example 222, 6-(4-(4-cyano-2-methylphenyl)-5-hydroxy-1H-pyrazol-1-yl)-N-((tetrahydro-2H-pyran-4-yl)methyl)nicotinamide] | 100 nM | 
14 | 7.16 |  | N#Cc1ccc(-c2cnn(-c3ccc(C(=O)N4CCOCC4)cn3)c2O)cc1 [Example 123, 4-(5-hydroxy-1-(5-(morpholine-4-carbonyl)pyridin-2-yl)-1H-pyrazol-4-yl)benzonitrile] | 4790 nM | 
15 | 7.6 |  | COc1nccc(-c2cnn(-c3ccc(C(=O)NCC4CCOCC4)cn3)c2O)c1OC [Example 255, 6-(4-(2,3-dimethoxypyridin-4-yl)-5-hydroxy-1H-pyrazol-1-yl)-N-((tetrahydro-2H-pyran-4-yl)methyl)nicotinamide] | 1450 nM | 
16 | 7.32 |  | CCOCCNC(=O)c1ccc(-n2ncc(-c3ccc(C#N)cc3)c2O)nc1 [Example 112, 6-(4-(4-cyanophenyl)-5-hydroxy-1H-pyrazol-1-yl)-N-(2-ethoxyethyl)nicotinamide] | 1380 nM | 
17 | 6.98 |  | CN1CCC(CNC(=O)c2ccc(-n3ncc(-c4ccc(C#N)cc4)c3O)nc2)CC1 [Example 57, 6-(4-(4-cyanophenyl)-5-hydroxy-1H-pyrazol-1-yl)-N-((1-methylpiperidin-4-yl)methyl)nicotinamide] |  | 5.70
18 | 7.21 |  | COCCC1(NC(=O)c2ccc(-n3ncc(-c4ccc(C#N)cc4C)c3O)nc2)CC1 [Example 215, 6-(4-(4-cyano-2-methylphenyl)-5-hydroxy-1H-pyrazol-1-yl)-N-(1-(2-methoxyethyl)cyclopropyl)nicotinamide] | 257 nM | 
19 | 8.34 |  | CCN1CCN(C(=O)c2ccc(-n3ncc(-c4ccc(C#N)c(F)c4C)c3O)nc2)[C@H](C)C1 [Example 330, (R)-4-(1-(5-(4-ethyl-2-methylpiperazine-1-carbonyl)pyridin-2-yl)-5-hydroxy-1H-pyrazol-4-yl)-2-fluoro-3-methylbenzonitrile] | 407 nM | 
20 |  | 13.8 nM | Cc1cc(C#N)ccc1-c1cnn(-c2ccc(C(=O)N3CCN(C(C)C)[C@@H](C)C3)cn2)c1O [Example 393, (S)-4-(5-hydroxy-1-(5-(4-isopropyl-3-methylpiperazine-1-carbonyl)pyridin-2-yl)-1H-pyrazol-4-yl)-3-methylbenzonitrile] | 1450 nM | 
21 | 7.25 |  | CN(C)CC1CCN(C(=O)c2ccc(-n3ncc(-c4ccc(C#N)cc4)c3O)nc2)C1 (stereo not shown) [Example 353, 4-(1-(5-(3-((dimethylamino)methyl)pyrrolidine-1-carbonyl)pyridin-2-yl)-5-hydroxy-1H-pyrazol-4-yl)benzonitrile] | 3550 nM | 
22 | 6.83 |  | COc1cc(C#N)ccc1-c1cnn(-c2ccc(C(=O)N[C@H]3CC[C@@H](OC)CC3)cn2)c1O [Example 230, 6-(4-(4-cyano-2-methoxyphenyl)-5-hydroxy-1H-pyrazol-1-yl)-N-((1s,4s)-4-methoxycyclohexyl)nicotinamide] | 407 nM | 
23 | 7.95 |  | CCN(C(=O)c1ccc(-n2ncc(-c3ccc(C#N)cc3C)c2O)nc1)C1CCN(C)CC1 [Example 429, 6-(4-(4-cyano-2-methylphenyl)-5-hydroxy-1H-pyrazol-1-yl)-N-ethyl-N-(1-methylpiperidin-4-yl)nicotinamide] | 589 nM | 
24 | 7.21 |  | COc1cc(-c2cnn(-c3ccc(C(=O)NC4CCOCC4)cn3)c2O)ccn1 [Example 15, 6-(5-hydroxy-4-(2-methoxypyridin-4-yl)-1H-pyrazol-1-yl)-N-(tetrahydro-2H-pyran-4-yl)nicotinamide] | 646 nM | 
25 | 6.83 |  | N#Cc1ccc(-c2cnn(-c3ccc(C(=O)NCC4CCOCC4)cn3)c2O)c(Cl)c1 [Example 197, 6-(4-(2-chloro-4-cyanophenyl)-5-hydroxy-1H-pyrazol-1-yl)-N-((tetrahydro-2H-pyran-4-yl)methyl)nicotinamide] | 1580 nM | 
26 | 7.22 |  | COCCC(C)NC(=O)c1ccc(-n2ncc(-c3ccc(C#N)cc3C)c2O)nc1 (stereo not shown) [Example 69, 6-(4-(4-cyano-2-methylphenyl)-5-hydroxy-1H-pyrazol-1-yl)-N-(4-methoxybutan-2-yl)nicotinamide] | 89.1 nM | 
27 | 7.80 |  | Cc1cc(C#N)ccc1-c1cnn(-c2ccc(C(=O)N(C)CC3CCN(C(C)C)C3)cn2)c1O (stereo not shown) [Example 362, 6-(4-(4-cyano-2-methylphenyl)-5-hydroxy-1H-pyrazol-1-yl)-N-((1-isopropylpyrrolidin-3-yl)methyl)-N-methylnicotinamide] | 525 nM | 
28 | 8.47 |  | Cc1c(-c2cnn(-c3ccc(C(=O)N4CCC[C@H](N(C)CC(F)(F)F)C4)cn3)c2O)ccc(C#N)c1F [Example 332, (S)-2-fluoro-4-(5-hydroxy-1-(5-(3-(methyl(2,2,2-trifluoroethyl)amino)piperidine-1-carbonyl)pyridin-2-yl)-1H-pyrazol-4-yl)-3-methylbenzonitrile] | 759 nM | 
29 | 8.3 |  | COCC1CCN(C(=O)c2ccc(-n3ncc(-c4ccc(C#N)cc4C)c3O)nc2)CC1 [Example 248, 4-(5-hydroxy-1-(5-(4-(methoxymethyl)piperidine-1-carbonyl)pyridin-2-yl)-1H-pyrazol-4-yl)-3-methylbenzonitrile] | 251 nM | 
